Data set [1] relates to zebrafish AHR1A, AHR1B, and AHR2. Kind of data set: Antisense morpholino knockdown, any of the morpholinos. It is filed as in vivo.
Data set [2] relates to 21 AHR-related, cardiac stress-related and oxidative stress gene transcripts.
The target in another data set is T1, AHR2 (Danio rerio, UniProt Q9YGV3).
T1 sequence (Q9YGV3 1-1027): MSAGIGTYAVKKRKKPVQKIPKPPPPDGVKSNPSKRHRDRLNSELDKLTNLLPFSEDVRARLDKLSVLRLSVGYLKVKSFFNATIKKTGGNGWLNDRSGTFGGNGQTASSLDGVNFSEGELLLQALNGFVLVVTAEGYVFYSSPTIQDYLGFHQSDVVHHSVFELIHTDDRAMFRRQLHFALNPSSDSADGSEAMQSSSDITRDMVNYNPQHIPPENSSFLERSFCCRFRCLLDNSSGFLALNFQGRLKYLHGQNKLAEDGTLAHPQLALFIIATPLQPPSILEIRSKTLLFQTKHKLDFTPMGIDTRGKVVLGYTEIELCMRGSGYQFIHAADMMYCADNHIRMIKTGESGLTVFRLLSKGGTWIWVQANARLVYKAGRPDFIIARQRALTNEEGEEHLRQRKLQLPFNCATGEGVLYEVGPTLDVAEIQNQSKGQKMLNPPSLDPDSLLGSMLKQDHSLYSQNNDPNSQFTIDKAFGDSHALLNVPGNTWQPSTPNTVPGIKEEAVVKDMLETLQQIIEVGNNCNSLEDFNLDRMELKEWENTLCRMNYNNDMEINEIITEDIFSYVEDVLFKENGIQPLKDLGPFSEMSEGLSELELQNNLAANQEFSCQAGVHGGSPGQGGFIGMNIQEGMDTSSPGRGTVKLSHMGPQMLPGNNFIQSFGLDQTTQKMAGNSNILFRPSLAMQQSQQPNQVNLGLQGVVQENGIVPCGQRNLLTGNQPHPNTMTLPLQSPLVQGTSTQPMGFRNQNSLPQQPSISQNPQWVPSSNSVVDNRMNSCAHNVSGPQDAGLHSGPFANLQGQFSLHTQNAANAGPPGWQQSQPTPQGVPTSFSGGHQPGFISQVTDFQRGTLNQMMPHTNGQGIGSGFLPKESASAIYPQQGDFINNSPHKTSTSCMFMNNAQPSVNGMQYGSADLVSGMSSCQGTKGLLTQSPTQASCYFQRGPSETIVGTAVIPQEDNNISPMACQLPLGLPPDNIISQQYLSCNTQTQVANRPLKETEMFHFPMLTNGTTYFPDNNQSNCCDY
Kind of data set: Antisense morpholino knockdown of AHR2 in Tg. The data set is classed as in vivo, zebrafish. As to conditions: for expression in the skin and vasculature in AHR2 morphants: not shown.

The next data set has as its system arg2. The settings on record: 48 hpf embryos; dependent on AHR2; ref Goodale et al., 2015; cited from earlier work.
Another data set has as its system cyp1a/GFP. As to conditions: ref Goodale et al., 2015; cited from earlier work.
The test system of data set [3] is zebrafish embryos. The settings on record: zebrafish embryos exposed 6 to 120 hpf; beyond the range of concentrations tested and beyond the range of accuracy of the EC50 model.
For the next data set, the system named is AHR1A. Briefly: Antisense morpholino knockdown of AHR1A in Tg. As to conditions: for cyp1a/GFP expression in the livers in AHR1A morphants: single concentration. It is filed as in vivo, zebrafish.
The test system of data set [4] is zebrafish embryos. Kind of data set: animal or person. The settings on record: Danio rerio, read-out: EC50, calculated value beyond the range of concentrations tested, zebrafish embryos exposed 6 to 120 hpf; beyond the range of concentrations tested and beyond the range of accuracy of the EC50 model.
The test system of a further data set is cyp1a. The settings on record: transgenic Japanese Medaka; ref Ng and Gong, 2013; cited from earlier work.

Consider `O=[N+]([O-])c1cc([N+](=O)[O-])c2ccc3cccc4ccc1c2c43` [1,3-dinitropyrene], for which the “cyp1a/GFP expression in the yolk after injection with any of the morpholinos” value in data set [1] is recorded as “did not appear to decrease”. Moreover, the “expression of nppb, increase” value in data set [2] (3.56 µM, 120 hpf) is recorded as 23 fold. Further, the “expression of myl7, significant increase” value in [2] (48 hpf) stood at 2 fold. The “number of differentially expressed genes” value in data set [2] (48 hpf, suite of 21 genes) was determined as 4.

Turning to `O=[N+]([O-])c1ccc2ccc3c([N+](=O)[O-])ccc4ccc1c2c43` [1,6-dinitropyrene], at AHR2, the “cyp1a/GFP expression in the vasculature and/or skin (and neuromasts, for 7-nitrobenzo[k]fluoranthene) following knockdown of AHR2” value (shortened to “cyp1a/GFP expression … of AHR2”) is recorded as “near-complete inhibition”; the “toxicity in AHR2 morphants” value is “Decreased toxicity”; the “expression in the skin and vasculature in AHR2 morphants” value was “reduced”. The “expression of cyp1a, cyp1b1, cyp1c1, and cyp1c2” value in data set [2] (5 µM, at 48 and 120 hpf, vs DMSO control) is “Significantly increased expression”. Further, in data set [2] (48 hpf, compared to the DMSO exposed controls), the “expression of cyp1a1, increase” value is reported as 1,963 fold. The “expression of arg2” value in data set [2] (120 hpf) is “significantly increased expression”.

Turning to `O=C1c2ccccc2-c2cccc3cccc1c23` [1,9-benz-10-anthrone], the arg2 expression entry in the data set on arg2 was “significantly elevated”. In addition, the “cyp1a/GFP expression in the syncytial layer of the yolk” value in the data set on cyp1a/GFP was “previously observed”.

As for `O=[N+]([O-])c1ccc2cc3ccccc3cc2c1` [2-nitroanthracene], in the data set on zebrafish embryos [3], the “EC50, calculated value beyond the range of concentrations tested” value (from here on “EC50, calculated value beyond the range”) was “beyond the tested range of concentrations”.

As for `O=[N+]([O-])c1c2c(cc3ccccc13)-c1ccc([N+](=O)[O-])c3cccc-2c13` [3,7-dinitrobenzo[k]fluoranthene], at AHR2, the “cyp1a/GFP expression … of AHR2” value is given as “near-complete inhibition”; the “expression in the skin and vasculature in AHR2 morphants” value was “reduced”.

Take `O=[N+]([O-])c1ccc2c3c(cccc13)-c1ccccc1-2` [3-nitrofluoranthene]: the “cyp1a/GFP expression in the yolk after injection with any of the morpholinos” value in data set [1] is reported as “did not appear to decrease”.

With `O=[N+]([O-])c1ccc2c3c(cccc13)CC2` [5-nitroacenaphthalene], in the data set on AHR1A, the “observed developmental toxicity in AHR1A morphants” value is recorded as “did not result in a substantial decrease” and the “cyp1a/GFP expression in the livers in AHR1A morphants” value (from here on “cyp1a/GFP expression in the livers”) is given as “eliminated”. Also, in data set [2] (120 hpf), the “expression of arg2” value is recorded as “significantly increased expression”.

`O=[N+]([O-])c1c2ccccc2cc2c1ccc1ccccc12` [7-nitrobenz[a]anthracene]: in the data set with zebrafish embryos [4], the EC50 was 238 µM. Also, the “cyp1a/GFP expression … of AHR2” value on AHR2 is recorded as “near-complete inhibition”. Besides, at AHR2 (at both 48 and 120 hpf), the “GFP expression in AHR2 morphants, vasculature” value is “Decreased GFP expression”. The “EC50, calculated value beyond the range” value in the data set on zebrafish embryos [3] is recorded as “beyond the tested range of concentrations”.

For `O=[N+]([O-])c1c2c(cc3ccccc13)-c1cccc3cccc-2c13` [7-nitrobenzo[k]fluoranthene], the “cyp1a/GFP expression … of AHR2” value on AHR2 is listed as “near-complete inhibition”. Besides, the “GFP expression in AHR2 morphants, skin and neuromasts” value on AHR2 (at both 48 and 120 hpf) is on record as “Decreased GFP expression”. For the same molecule, in the data set on AHR1A, the “cyp1a/GFP expression in the livers” value is “eliminated”. For the same molecule, the “expression of cyp1a, cyp1b1, and cyp1c1” value in data set [2] (50 µM, at 120 hpf, vs DMSO control) is recorded as “Significantly increased expression”. In addition, the “expression of arg2” value in [2] (120 hpf) was “significantly increased expression”.

Regarding `O=[N+]([O-])c1cc2ccccc2c2ccccc12` [9-nitrophenanthrene], in the data set with AHR1A, the “cyp1a/GFP expression in the livers” value was “eliminated”.

For `c1ccc2c(c1)oc1ccccc12` [Dibenzofuran], the EC50 in the data set with zebrafish embryos [4] was 228 µM. In addition, the “EC50, calculated value beyond the range” value with zebrafish embryos [3] is on record as “beyond the tested range of concentrations”.

`Clc1cc2c(cc1Cl)Oc1cc(Cl)c(Cl)cc1O2` [TCDD]: in the data set on cyp1a, the “expression of cyp1a in the neuromasts” value is “observed previously”.
